Laboratory results as given in patent US8722035B2, “Formulations including digestive enzymes, polysorbate-based surfactants and probiotics” (Master Supplements, Inc., priority 2007, dated 2014).

Columns and labels:
[1] = tested on: Bifidobacterium bifidum BB-12; assay: Growth of Bifidobacterium bifidum BB-12 in broth (Example 6); type: cell-based; conditions: untreated Test I 11 million CFU/ml
[2] = hydrophile-lipophile balance, designated from 1 to 20; cited from earlier work
[3] = tested on: Lactobacillus rhamnosus HN001; assay: Growth of Lactobacillus rhamnosus HN001 in broth, plated on MRS agar (Example 2); type: cell-based; conditions: procedures of Example 1, untreated Test I 6 million CFU/ml
Protocol: (§1) • I) Lactobacillus acidophilus LA-1 was inoculated at one (1) million CFU/ml into 500 ml of sterile broth medium conta Ming 2% casein, 2% corn starch, 0.1% calcium carbonate, 0.1% magnesium carbonate, and 0.05% yeast extract (Difco); a medium in which it is difficult to achieve significant Lactobacillus growth but which contains typical nutrients found in human diets. The inoculated broth (contained in 1 L Erlenmeyer flasks) was incubated at 37 C for 24 hours and then plated on MRS auar to determine CFU/ml. Result (average of triplicate samples): 12 million CFU/ml. • II) The test in (I) was repeated where the medium also contained 0.1% Tween-80. Result: 14 million CFU/ml. • III) The test in (I) was repeated where the medium was pre-treated with digestive enzymes for 24 hours prior to sterilization at 121 C for 20 minutes at 15 psi. The pre-treatment involved adding 250 mg of a lactogenic enzyme mixture containing papain (10,000 TU), bromelain (50 GDU), alpha-amylase (1,000 SKB) and glucoamylase (2.5 AG). Result: 87 million CFU/ml • IV) The test in (III) was repeated where 0.1% Tween-80 (as DP35) was added during the enzyme pre-treatment procedure.
• The procedures of Example 1 were repeated with Lactobacillus rhamnosus HN001 substituted for Lactobacillus acidophilus LA-1. The results are as follows: Test I): 6 million CFU/ml. Test II): 7.5 million CFU/ml. Test III): 62 million CFU/ml.

[4] = tested on: Lactobacillus acidophilus LA-1; assay: Growth of Lactobacillus acidophilus LA-1 in broth, plated on MRS agar (Examples 1 and 4); type: cell-based
Protocol: as §1, with “procedure. […]” for “procedure.”

[5] = tested on: Lactobacillus paracasei F-19; assay: Growth of Lactobacillus paracasei F-19 in broth, plated on MRS agar (Example 3); type: cell-based; conditions: procedures of Example 1, untreated Test I 14 million CFU/ml
[6] = tested on: Bifidobacterium lactis BL04; assay: Anaerobic growth of Bifidobacterium lactis BL04 in broth, plated on MRS agar plus L-cysteine HCl (Example 5); type: cell-based; conditions: inoculum 2 million CFU/ml, casein/rye/asparagus/barley broth, anaerobic 37 C, 24 hours, 0.025% Tween-80, 250 mg enzyme mixture, 24 h pre-treatment, untreated Test I 8 million CFU/ml
Protocol: • I) Bifidobacterium lactis BL04 was inoculated at two (2) million CFU/ml into 500 ml of sterile broth medium containing 2% casein, 1% rye flour, 1% asparagus powder (ground freeze-dried asparagus), 1% barley flour, 0.1% calcium carbonate, 0.1% magnesium carbonate, and 0.05% yeast extract (Difco); a medium in which it is generally difficult to achieve significant Bifidobacteria growth but contains typical nutrients fbund in human diets. The inoculated broth (contained in 1 L Erlenmeyer flasks) was incubated anaerobically at 37 C for 24 hours and then plated on MRS agar plus L-cysteine HCl, to determine CFU/ml (plates were incubated anaerobically), Result (average of triplicate samples): 8 million CFU/ml. • II) The test in I) was repeated where the medium also contained 0.025% Tween-80. Result: 3 million CFU/ml. • III) The test in I) was repeated where the medium was pre-treated with digestive enzymes for 24 hours prior to sterilization at 121 C for 20 minutes at 15 psi. The pre-treatment involved adding 250 mg of a bifidogenic enzyme mixture containing cellulase-TL (1,000 CU), hemicellulase (1,000 HCU), beta-glucanase (50 BGU), papain (10,000 TU) and bromelain (50 GDU). Result 74 million CFU/ml. • IV) The test in III) was repeated where 0.025% Tween-80 was added during the enzyme pre-treatment procedure.

Row | Compound | viable count of Bifidobacterium bifidum BB-12 after incubation [1] | HLB [2] | viable count of L. rhamnosus HN001 after incubation [3] | viable count of L. acidophilus LA-1 after incubation ([4]; Example 1, inoculum 1 million CFU/ml, casein/corn starch broth, 37 C, 24 hours, 0.1% Tween-80, 250 mg enzyme mixture, 24 h pre-treatment, untreated Test I 12 million CFU/ml) | viable count of L. paracasei F-19 after incubation [5] | viable count of Bifidobacterium lactis BL04 after incubation [6] | viable count of L. acidophilus LA-1 after incubation ([4]; Example 4, procedures of Example 1 with different enzyme mixture and Tween-60 in place of Tween-80, untreated Test I 10 million CFU/ml)
1 | CCCCCCCC/C=C\CCCCCCCC(=O)OCCOCC(OCCO)C1OCC(OCCO)C1OCCO (stereo not shown) [Tween-80, polyoxyethylene sorbitan monooleate] | 5 million CFU/ml | 15.0 | 7.5 million CFU/ml | 14 million CFU/ml | 19 million CFU/ml | 3 million CFU/ml | –
2 | polyoxyethylene sorbitan monostearate [Tween-60] | – | – | – | – | – | – | 9 million CFU/ml
